Source: the supplement of paper PMC10307832

Key:
Experiment in all cases: relative viability (nuclei count vs DMSO), 5 days (fraction); higher = more cells survive
QS11 + Foretinib = compound: C1CC2=C(C1)C=C(C=C2)OC3=NC(=C4C(=N3)N(C=N4)CC5=CC=C(C=C5)C6=CC=CC=C6)N[C@@H](CC7=CC=CC=C7)CO [QS11] + COc1cc2c(Oc3ccc(NC(=O)C4(C(=O)Nc5ccc(F)cc5)CC4)cc3F)ccnc2cc1OCCCN1CCOCC1 [Foretinib] (partner 0.25 µM)
In short: (§1)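 Relative viability is defined as nuclei in treated wells over nuclei in vehicle wells. Duplicate plates were run and medians reported. Lung cancer cell lines in 1536-well plates were dosed by pin tool one day after seeding, with one drug or with a fixed anchor-drug dose plus five library-drug doses (not always all listed) in √10 steps, and nuclei were counted after 5 days.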

AZ628 + Foretinib = compound: CC1=C(C=C(C=C1)NC(=O)C2=CC(=CC=C2)C(C)(C)C#N)NC3=CC4=C(C=C3)N=CN(C4=O)C [AZ628] + COc1cc2c(Oc3ccc(NC(=O)C4(C(=O)Nc5ccc(F)cc5)CC4)cc3F)ccnc2cc1OCCCN1CCOCC1 [Foretinib] (partner 0.25 µM)
In short: as §1

[1] = compound: C[As](C)SC[C@H](NC(=O)CC[C@H](N)C(=O)O)C(=O)NCC(=O)O [Darinaparsin] + CC(C)C[C@H](NC(=O)[C@H](Cc1ccccc1)NC(=O)c1cnccn1)B(O)O [Bortezomib] (partner 0.002 µM)
In short: as §1

[2] = compound: C[As](C)SC[C@H](NC(=O)CC[C@H](N)C(=O)O)C(=O)NCC(=O)O [Darinaparsin] + CCNC(=O)c1noc(-c2cc(C(C)C)c(O)cc2O)c1-c1ccc(CN2CCOCC2)cc1 [Luminespib] (partner 0.01 µM)
In short: as §1

| Cell Line | relative viability (QS11 + Foretinib; first compound 0.08 µM) | relative viability (QS11 + Foretinib; first compound 0.253 µM) | relative viability (QS11 + Foretinib; first compound 0.8 µM) | relative viability (QS11 + Foretinib; first compound 2.53 µM) | relative viability (QS11 + Foretinib; first compound 8 µM) | relative viability (AZ628 + Foretinib; first compound 0.08 µM) | relative viability (AZ628 + Foretinib; first compound 0.253 µM) | relative viability (AZ628 + Foretinib; first compound 0.8 µM) | relative viability (AZ628 + Foretinib; first compound 2.53 µM) | relative viability (AZ628 + Foretinib; first compound 8 µM) | relative viability ([1]; first compound 0.08 µM) | relative viability ([1]; first compound 0.8 µM) | relative viability ([1]; first compound 2.53 µM) | relative viability ([1]; first compound 8 µM) | relative viability ([2]; first compound 0.08 µM) | relative viability ([2]; first compound 0.8 µM) | relative viability ([2]; first compound 2.53 µM) | relative viability ([2]; first compound 8 µM) |
| --- | --- | --- | --- | --- | --- | --- | --- | --- | --- | --- | --- | --- | --- | --- | --- | --- | --- | --- |
| HCC-15 | 0.999 | 1.12 | 0.764 | 1.01 | 0.899 | 1.08 | 0.984 | 0.871 | 0.868 | 0.467 | 1.25 | 1.06 | 0.863 | 1.28 | 0.461 | 0.253 | 0.326 | 0.467 |
| HCC-44 | – | – | – | – | – | – | – | – | – | – | 1.04 | 0.861 | 0.801 | 1.04 | 1.47 | 1.12 | 0.954 | 0.804 |
| HCC-78 | 0.538 | 0.494 | 0.606 | 0.689 | 0.66 | 0.732 | 0.748 | 0.715 | 0.621 | 0.67 | 0.464 | 0.59 | 0.482 | 0.55 | – | – | – | – |
| HCC-366 | 0.985 | 0.962 | – | 0.895 | 0.147 | 0.885 | 0.884 | 0.781 | 0.892 | 0.372 | 1.71 | 1.11 | 0.768 | 1.94 | – | – | – | – |
| HCC-827 | 1.05 | 1.05 | 0.8 | 1.02 | 0.812 | 0.982 | 0.933 | 0.967 | 1.02 | 0.715 | 1.12 | 1.02 | 1.08 | 1.15 | 0.812 | 0.704 | 0.59 | 0.936 |
| IA-LM | 1.22 | 1.15 | – | 1.12 | 0.969 | 1.28 | 1.04 | 0.821 | 0.861 | 0.2 | 0.893 | 1.08 | 1.32 | 1.01 | – | – | – | – |
| LK-2 | 1.13 | 1.38 | 1.41 | 1.13 | 1.09 | 1.42 | 0.985 | 1.09 | 1.28 | 0.587 | – | – | – | – | 0.175 | – | 0.173 | 0.174 |
| NCI-H358 | 0.596 | 0.777 | 1 | 0.936 | 0.52 | 0.538 | 0.472 | 0.373 | 0.466 | 0.323 | – | – | – | – | 0.416 | 0.332 | – | 0.344 |
| NCI-H522 | – | – | – | – | – | – | – | – | – | – | – | – | – | – | 1.1 | 1.22 | 1.28 | 1.15 |
| NCI-H1299 | 1.14 | 1.11 | 0.956 | 1.04 | 0.948 | 1.12 | 1.3 | 1.3 | 1.24 | 0.58 | 1.01 | 0.99 | 1.03 | 1.04 | – | – | – | – |
| NCI-H1395 | 0.893 | 0.964 | 1.02 | 1 | 1.09 | 0.996 | 0.967 | 0.974 | 1 | 0.939 | – | – | – | – | 0.681 | 0.708 | 0.553 | 0.593 |
| NCI-H1623 | 0.807 | 0.829 | 0.751 | 0.775 | 1.01 | 0.848 | 0.829 | 0.62 | 0.764 | 0.498 | – | – | – | – | 0.538 | 0.572 | 0.496 | 0.43 |
| NCI-H1703 | 0.306 | 0.309 | 0.333 | 0.422 | 0.322 | 0.327 | 0.41 | 0.415 | 0.302 | 0.413 | 0.317 | 0.338 | 0.39 | 0.33 | – | – | – | – |
| NCI-H1792 | – | – | – | – | – | – | – | – | – | – | 1.69 | 1.03 | 0.652 | 1.03 | 0.681 | 0.387 | – | 0.539 |
| NCI-H1793 | 0.796 | 0.657 | 0.767 | 0.573 | 0.935 | 0.669 | 0.83 | 0.787 | 0.487 | 0.384 | – | – | – | – | 0.238 | 0.162 | 0.161 | 0.175 |
| NCI-H1944 | 0.886 | 0.967 | – | 0.641 | 0.671 | 0.943 | 0.842 | 0.69 | 0.757 | 0.604 | – | – | – | – | 0.84 | 0.705 | 0.686 | 0.676 |
| NCI-H2170 | 1.02 | 0.987 | 0.77 | 1.06 | 1.06 | 0.992 | 1.07 | 1.03 | 1.07 | 0.913 | – | – | – | – | 0.82 | 0.381 | 0.727 | 1.1 |
| NCI-H2342 | 1.02 | 1.07 | 1.07 | 1.02 | 1.19 | 1.08 | 1.01 | 1.16 | 1.24 | 1.12 | – | – | – | – | 0.773 | 0.8 | 0.813 | 0.826 |
| SK-MES-1 | 0.985 | 0.783 | 0.918 | 0.605 | 0.778 | 0.837 | 0.894 | 0.801 | 0.771 | 0.846 | – | – | – | – | 1.19 | 0.691 | 0.88 | 0.864 |
| SW 900 | 0.981 | 0.875 | 0.844 | 0.774 | 0.8 | 0.931 | 0.874 | 0.971 | 0.685 | 0.619 | – | – | – | – | 0.169 | 0.169 | 0.17 | 0.166 |
